molecular target: T1, FAAH (Rattus norvegicus, UniProt P97612); test: FAAH whole cell assay, CHO cells expressing rat FAAH; assay type: cell-based; details: not given
T1 construct: expressed in transfected cells; cDNA by RT-PCR from brain cDNA (BD Biosciences)
T1 sequence (P97612 1-579): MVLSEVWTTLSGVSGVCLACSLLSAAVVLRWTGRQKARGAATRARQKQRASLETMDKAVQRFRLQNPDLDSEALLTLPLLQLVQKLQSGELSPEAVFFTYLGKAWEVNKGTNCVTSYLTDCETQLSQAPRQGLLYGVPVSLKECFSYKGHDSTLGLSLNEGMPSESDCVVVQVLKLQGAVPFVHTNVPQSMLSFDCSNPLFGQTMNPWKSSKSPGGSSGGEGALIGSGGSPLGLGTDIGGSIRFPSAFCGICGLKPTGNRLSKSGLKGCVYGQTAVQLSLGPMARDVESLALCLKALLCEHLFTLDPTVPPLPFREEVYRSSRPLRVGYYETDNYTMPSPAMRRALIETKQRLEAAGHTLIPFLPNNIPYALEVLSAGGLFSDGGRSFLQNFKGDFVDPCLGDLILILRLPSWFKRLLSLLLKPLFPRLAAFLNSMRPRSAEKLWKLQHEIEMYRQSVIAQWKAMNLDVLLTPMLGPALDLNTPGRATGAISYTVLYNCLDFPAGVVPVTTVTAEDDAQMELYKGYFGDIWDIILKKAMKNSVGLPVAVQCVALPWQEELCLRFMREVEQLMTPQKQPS
Excerpt: (§1) Murine (accession number NM_010173) and Rat FAAH (accession number NM_024132) was amplified by reverse transcriptase polymerase chain reaction (RT-PCR) from brain cDNA (BD Biosciences, San Jose, Calif.) using primers 1 and 2 or primers 1 and 3 respectively (see Table). The resulting PCR product was ligated into pCR4TOPO and DNA sequence confirmed. The full length murine FAAH was subcloned into the mammalian expression vector, pcDEFneo using either EcoRI (murine) or KpnI and EcoRI (rat) restriction sites. Chinese hamster ovary cells (CHO) were transfected following manufacturers protocol (AMAXA). Forty eight hours post transfection, cells were trypsinized and transferred to 96 well plates in Iscove's DMEM media supplemented with 2 mM Glutamine, 10% fetal calf serum, 1 mg/ml geneticin and HT Supplement (0.1 mM sodium hypoxanthine, 0.016 mM thymidine) in order to isolate single clones. Following selection in geneticin, individual clones were selected and FAAH activity was assessed using a whole cell fluorescent anandamide assay, modified from Ramarao et al (2005). Following removal of tissue culture media cells were dislodged following addition of Cellstripper (Mediatech, Inc. Manassas, Va.) and transferred to 96 well black clear bottom assay plate, centrifuged at 1,000 rpm for 3 mins and media removed and replaced with assay buffer (50 mM Tris pH8.0, 1 mM EDTA, 0.1% fatty acid free BSA). The reaction was initiated by addition of fluorescent substrate, AMC Arachidonoyl Amide (Cayman Chemical, Ann Arbor, Mich.) to 1 μM and reaction allowed to proceed for 2 hours at room temperature. Release of fluorescence was monitored in a CytoFluor Multiplate Reader. Cells expressing the highest amount of FAAH activity were selected for study with FAAH inhibitors.
(§2) Assays are performed on either cell lysate or microsome fractions prepared as described or in whole cell format employing either the fluorescent substrate AAMCA (Cayman chemical, Ann Arbor, Mich.,) or ^3H-anandmaide ([ETHANOLAMINE-1-3H]American Radiolabeled Chemicals; 1 mCi/ml). The cell lysate or microsome assay is performed in Costar black wall, clear bottom plates by adding FAAH_CHO (whole cell, cell lysate or microsome) in assay buffer (50 mM Phosphate, pH 8.0, 1 mM EDTA, 200 mM KCl, 0.2% glycerol, 0.1% fatty acid free BSA) to each well, followed by either DMSO or compound and allowed to incubate at 22-25° C. for fifteen minutes. AAMCA substrate was used to achieve a final concentration of 1 μM and reaction allowed to proceed at room temperature for 1-3 hours. Fluorescent release as a measure of FAAH activity was monitored by reading the plate in a CytoFluor Multiplate Reader ([…]). Whole cell assay is conducted with cells harvested after rinsing tissue culture flasks three times with Ca^++Mg^++ free PBS, incubating for 10 mm in Enzyme free dissociation media and centrifuging for 5 minutes at 1,000 rpm in table top centrifuge. Cells are resuspended in assay buffer at desired cell number in (4×10^4 cells/assay in 96-well format; 1×10^4 cells/assay in 384-well format) and assayed as described.

IC50 [nM]	Compound
18	CS(=O)(=O)c1ccc(-c2nn(-c3ccc(F)cc3)cc2Sc2ccc(Cl)cc2)cc1 [Ex 1]
16	CS(=O)(=O)c1ccc(-c2nn(-c3ccncc3)cc2Sc2ccc(Cl)cc2)cc1 [Ex 5]
86	CS(=O)(=O)c1ccc(-c2nn(C3CCCC3)cc2Sc2ccc(Cl)cc2)cc1 [Ex 23]

molecular target: T2, FAAH (Homo sapiens, UniProt O00519); test: FAAH whole cell assay, CHO cells expressing human FAAH; assay type: cell-based; details: read-out: FAAH Human Whole Cell IC50
T2 construct: The full length FAAH was subcloned into the mammalian expression vector, pcDEF.neo; expressed in transfected cells; cDNA from Origene
T2 sequence (O00519 1-579): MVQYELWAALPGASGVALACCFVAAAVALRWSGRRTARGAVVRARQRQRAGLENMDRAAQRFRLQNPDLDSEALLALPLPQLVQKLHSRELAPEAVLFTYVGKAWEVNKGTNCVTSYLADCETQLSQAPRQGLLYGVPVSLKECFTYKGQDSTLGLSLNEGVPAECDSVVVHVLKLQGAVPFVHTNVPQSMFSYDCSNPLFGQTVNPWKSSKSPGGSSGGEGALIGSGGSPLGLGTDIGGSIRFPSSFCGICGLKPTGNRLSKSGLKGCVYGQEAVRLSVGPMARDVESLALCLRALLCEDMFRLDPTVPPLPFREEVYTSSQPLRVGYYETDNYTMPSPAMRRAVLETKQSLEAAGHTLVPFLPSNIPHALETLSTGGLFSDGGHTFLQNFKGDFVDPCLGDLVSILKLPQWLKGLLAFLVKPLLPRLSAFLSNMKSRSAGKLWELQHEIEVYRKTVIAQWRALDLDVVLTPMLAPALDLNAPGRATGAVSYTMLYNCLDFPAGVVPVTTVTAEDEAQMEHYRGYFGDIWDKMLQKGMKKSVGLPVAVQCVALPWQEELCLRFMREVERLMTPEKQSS
Excerpt: (§3) To assist in assay development stable cell lines for human, murine and rat full length FAAH were developed. Human FAAH cDNA (Accession No: NM_001441.1) was purchased from Origene (Rockville, Md.). The full length FAAH was subcloned into the mammalian expression vector, pcDEF.neo, using XbaI and […] restriction sites and used for stable cell line generation.
as §1, §2

IC50 [nM]	Compound
9.1	CCNC(=O)c1ccc2cc(-c3c(Sc4ccc(Cl)cc4)cnn3C3CCCCO3)ccc2n1 (centres unmarked) [Example 402]
63	CC(C)(O)c1ccc2cc(-c3c(Sc4ccc(Cl)cc4)cnn3C3CCCCO3)ccc2n1 (centres unmarked) [Example 403]
25	CC(=O)N1CCc2cc(-c3c(Sc4ccc(Cl)cc4)cnn3C3CCCCO3)ccc2C1 (centres unmarked) [Example 404]
35	N#Cc1ccc2cc(-c3c(Sc4ccc(Cl)cc4)cnn3C3CCCCO3)ccc2n1 (centres unmarked) [Example 405]
1.94	CCOC(=O)c1cnc2cc(-c3c(Sc4ccc(Cl)cc4)cnn3C3CCCCO3)ccc2c1 (centres unmarked) [Example 407]

same assay, conditions: read-out: Human whole cell

IC50 [nM]	Compound
36	CS(=O)(=O)c1ccc(-c2nn(-c3ccc(F)cc3)cc2Sc2ccc(Cl)cc2)cc1 [Ex 1]
48	CS(=O)(=O)c1ccc(-c2nn(-c3ccncc3)cc2Sc2ccc(Cl)cc2)cc1 [Ex 5]
141	CS(=O)(=O)c1ccc(-c2nn(C3CCCC3)cc2Sc2ccc(Cl)cc2)cc1 [Ex 23]

molecular target: T2, FAAH; test: FAAH enzyme assay, lysate of CHO cells expressing human FAAH; assay type: biochemical; details: CHO cell lysate, read-out: Human Lysate
Excerpt: as §3
CHO cells expressing FAAH were used to prepare either crude cell lysate or microsome fractions. To harvest cells, tissue culture media was decanted, the monolayer washed three times with Ca^++Mg^++ free PBS and cells recovered after 15 min in enzyme free dissociation media (Millipore Corp, Billerica, Mass.). Cells were collected by centrifuging at 2000 rpm for 15 min. and the cell pellet re-suspended with 50 mM HEPES (pH 7.4) containing 1 mM EDTA and the protease inhibitors aprotinin (1 mg/ml) and leupeptin (100 μM). The suspension was sonicated at 4° C. and the cell lysate recovered after centrifuging at 12,000×g (14,600 rpm, SS34 rotor) for 20 min at 4° C. to form a crude pellet of cell debris, nuclei, peroxisomes, lysosomes, and mitochondria; the supernatant or cell lysate was used for FAAH enzyme assay. In some cases, microsomes fractions enriched in FAAH were prepared by centrifuging the cell lysate further at 27,000 rpm (100,000×g) in SW28 rotor for 50 minutes at 4° C. The pellet containing FAAH-enriched microsomes was re-suspend in 50 mM HEPES, (pH 7.4) 1 mM EDTA, and any remaining DNA sheared by passage of material through a 23 gauge needle and aliquots of enzyme were store at −80° C. prior to use.
(American Radiolabeled Chemicals; 1 mCi/ml) with FAAH (Life Sciences (1995), 56, 1999-2005 and Journal of Pharmacology and Experimented Therapeutics (1997), 283, 729-734), Analytical. Biochemistry (2003), 318, 270-5. In addition, routine assays were performed monitoring hydrolysis of arachidonyl-7-amino-4-methylcoumarin amide (AAMCA) by following increase in fluorescence upon release of 7-amino 4-methyl coumarin (λEX=355 nm, (λEM=460 nm). Analytical. Biochemistry (2005). 343, 143-51.
as §2
Alternatively, assays are performed using anandamide [ethanolamine 1-^3H] (specific activity of 10 Ci/mmol) diluted with cold anandamide to achieve a final assay concentration of 1 μM anandamide (˜50,000 cpm). Enzyme (CHO cell lysate, brain or liver homogenate) is incubated in assay buffer (50 mM Phosphate, pH 8.0, 1 mM EDTA, 200 mM KCl, 0.2% glycerol, 0.1% fatty acid free BSA) with inhibitor at 25° C. for 30 minutes. The reaction was terminated by addition of 2 volumes of chloroform:methanol (1:1) and mixed by vortexing. […]

IC50 [nM]	Compound
16	CS(=O)(=O)c1ccc(-c2nn(-c3ccc(F)cc3)cc2Sc2ccc(Cl)cc2)cc1 [Ex 1]
28	CS(=O)(=O)c1ccc(-c2nn(-c3ccncc3)cc2Sc2ccc(Cl)cc2)cc1 [Ex 5]
143	CS(=O)(=O)c1ccc(-c2nn(C3CCCC3)cc2Sc2ccc(Cl)cc2)cc1 [Ex 23]

same assay, conditions: cell lysate, read-out: FAAH Human Cell Lysate IC50

Compound	IC50 [nM]
OC(c1ccc2cc(-c3nn(CCF)cc3Sc3ccc(Cl)cc3)ccc2n1)C(F)(F)F (centres unmarked) [Example 373]	49
CCC(=O)N1CCc2cc(-c3n[nH]cc3Sc3ccc(Cl)cc3)ccc2C1 [Example 376]	168
CC(=O)N1CCc2cc(-c3nn(C(C)C)cc3Sc3ccc(Cl)cc3)ccc2C1 [Example 377]	33
FC(F)c1ccc2cc(-c3nn(C4CC4)cc3Sc3ccc(Cl)cn3)ccc2n1 [Example 383]	29
Cc1ccc2cc(-c3n[nH]cc3Sc3ccc(Cl)cc3)ccc2n1 [Example 385]	192
Clc1ccc(Sc2cn(C3CC3)nc2-c2ccc3nc(Cl)ccc3c2)cc1 [Example 386]	94
CCC(=O)N1CCc2cc(-c3nn(CCF)cc3Sc3ccc(Cl)cc3)ccc2C1 [Example 390]	62
OCc1cnc2cc(-c3nn(CCF)cc3Sc3ccc(Cl)cc3)ccc2c1 [Example 391]	24
CCNC(=O)c1cnc2cc(-c3nn(CCF)cc3Sc3ccc(Cl)cc3)cnc2c1 [Example 392]	47
N#Cc1ccc2cc(-c3nn(C4CC4)cc3Sc3ccc(Cl)cn3)ccc2n1 [Example 397]	172
CN(C)C(=O)c1ccc2cc(-c3nn(C4CC4)cc3Sc3ccc(Cl)cc3)ccc2n1 [Example 400]	39
CN(C)C(=O)c1ccc2cc(-c3nn(C4CC4)cc3Sc3ncc(Cl)cn3)ccc2n1 [Example 401]	291

Now from value to compound:

IC50 [nM]	Compound
11	OCc1ccc2cc(-c3n[nH]cc3Sc3ccc(Cl)cc3)ccc2n1 [Example 375]
4.9	FC(F)c1ccc2cc(-c3nn(-c4ccccn4)cc3Sc3ccc(Cl)cc3)ccc2n1 [Example 379]
24	Fc1ccc(-n2cc(Sc3ccc(Cl)cc3)c(-c3ccc4nc(C(F)F)ccc4c3)n2)cc1 [Example 380]
9.5	FC(F)c1ccc2cc(-c3nn(C4CC4)cc3Sc3ccc(Cl)cc3)ccc2n1 [Example 381]
4.9	CCn1cc(-n2cc(Sc3ccc(Cl)cc3)c(-c3ccc4nc(C(F)F)ccc4c3)n2)cn1 [Example 382]
18	Cc1ccc2cc(-c3nn(C4CC4)cc3Sc3ccc(Cl)cc3)ccc2n1 [Example 384]
14	CCOC(=O)c1cnc2cc(-c3n[nH]cc3Sc3ccc(Cl)cc3)cnc2c1 [Example 387]
16	CCOC(=O)c1cnc2cc(-c3nn(CCF)cc3Sc3ccc(Cl)cc3)cnc2c1 [Example 393]
15	CCNC(=O)c1cnc2cc(-c3nn(CCF)cc3Sc3ccc(Cl)cc3)ccc2c1 [Example 394]
14.8	NC(=O)c1ccc2cc(-c3nn(C4CC4)cc3Sc3ccc(Cl)cn3)ccc2n1 [Example 396]
0.77	CCOC(=O)c1ccc2cc(-c3n[nH]cc3Sc3ccc(Cl)cn3)ccc2n1 [Example 398]
11	CCOC(=O)c1ccc2cc(-c3nn(C4CC4)cc3Sc3ccc(Cl)cn3)ccc2n1 [Example 399]

Reference: patent US20110144056A1, “PYRAZOLE DERIVATIVES USEFUL AS INHIBITORS OF FAAH” (priority 2008, published 2011)
